From patent US8722030B2, “Composite vaccine adjuvant” (Institute of Medical Biology, Chinese Academy of Medical …, priority 2011, dated 2014)

Tests used:
Conditions in all cases: P<0.05
anti-HBs IgG [1] = test: Test 1: serum anti-HBs IgG level by ELISA after immunization with hepatitis B surface antigen plus adjuvant (composite adjuvant of embodiment 1)
Method: Both of the total volume of vaccines and the composite vaccine adjuvant for injection were 0.1 ml.
In the single sodium ferulate adjuvant group, sodium ferulate 10 mg and hepatitis B surface antigen 5 μg were mixed and dissolved into physiological saline 0.1 ml, and then were injected into mice subcutaneously.
(§1) In the adjuvant-free group, hepatitis B surface antigen 5 μg were mixed and dissolved into physiological saline 0.1 ml, and then were injected into mice subcutaneously.
(§2) In the blank group, each mouse was injected with physiological saline 0.1 ml.
(§3) Immunization schemes: three times immunization in total, subcutaneous injection of ICR mice in 0, 1, 6 month respectively.
(§4) B. ELISA Detection of Serum Anti-HBs IgG Level […]
(§5) The obtained experimental data were analyzed by single factor analysis of variance using SPSS11.5 statistics software, and P<0.05 having a statistically significance.

anti-HBs IgG [2] = test: Test 2: serum anti-HBs IgG level by ELISA after immunization with hepatitis B surface antigen plus adjuvant (composite adjuvant of embodiment 2)
Method: Both of the total volume of vaccine for injection and of the composite vaccine adjuvant were 0.1 ml.
In the single sodium ferulate adjuvant group, sodium ferulate 25 mg and hepatitis B surface antigen 5 μg were mixed and dissolved into physiological saline 0.1 ml, and then were injected into mice subcutaneously.
In the adjuvant-free group, hepatitis B surface antigen 5 μg were dissolved into physiological saline 0.1 ml, and then were injected into mice subcutaneously.
as §2, §3, §4, §5

anti-HBs IgG [3] = test: Test 3: serum anti-HBs IgG level by ELISA after immunization with hepatitis B surface antigen plus adjuvant (composite adjuvant of embodiment 3)
Method: Both of the total volume of vaccines for injection and of the composite vaccine adjuvant were 0.1 ml.
In the single sodium ferulate adjuvant group, sodium ferulate 50 mg and hepatitis B surface antigen 5 μg were mixed and dissolved into physiological saline 0.1 ml, and then were injected into mice subcutaneously.
as §1, §2, §3
B. ELISA Detection of Serum Anti-HBs IgG Level
After 4, 8, 16, 24, 32 weeks of the initial immunization, collect vein blood of mouse tail, separate serum, and then use ELISA to detect the serum anti-HBs IgG level by method of protein microporous kit. […]
as §5

Measured: antibody levels compared with the aluminum adjuvant control group

[OH-].[OH-].[Zn+2] [zinc hydroxide]
significantly higher: all assays above
